Assay results as given in PubChem BioAssay AID256 (DTP/NCI, 2004).
“And” between values parts separate entries of the source, which are not always exact repeats. Equal entries are not always repeated. Toxic doses and inconclusive results are not listed.

Test system: CD2F1 mice, L1210 leukemia ip, survival T/C
Assay: NCI In Vivo Anticancer Drug Screen. Data for tumor model L1210 Leukemia (intraperitoneal) in CD2F1 (CDF1) mice
Settings: higher = longer survival
In short: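 Transplantable tumor in mice; compound-treated vs vehicle-treated groups. Read-out = treated/control ratio of the measured endpoint.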

[1] = endpoint: mean survival time, dose: 100.0 mg/kg/injection, schedule: Q04DX003 (ip), vehicle: saline with Tween-80
[2] = endpoint: mean survival time, dose: 100.0 mg/kg/injection, schedule: Q01DX009 (ip), vehicle: saline with Tween-80
[3] = endpoint: mean survival time, dose: 200.0 mg/kg/injection, schedule: Q01DX009 (ip), vehicle: saline with Tween-80
[4] = endpoint: mean survival time, dose: 400.0 mg/kg/injection, schedule: Q01DX009 (ip), vehicle: saline with Tween-80
[5] = endpoint: mean survival time, dose: 100.0 mg/kg/injection, schedule: Q04DX002 (ip), vehicle: saline with Tween-80

Nc1ccc(CCCCc2ccc(Cl)cc2Cl)cc1
T/C [1]: 104 % of control | T/C (endpoint: mean survival time, dose: 200.0 mg/kg/injection, schedule: Q04DX003 (ip), vehicle: saline with Tween-80): 110 % of control

COc1ccc(C(=O)NS(=O)(=O)c2ccc(C)cc2)cc1
T/C [2]: 103 % of control | T/C [3]: 98 % of control | T/C [4]: 104 % of control

C=CCN1CCCC1=O
T/C [2]: 100 % of control | T/C [3]: 102 % of control | T/C [4]: 102 % of control

N#CC(Cl)(Cl)C(N)=O
T/C (endpoint: mean survival time, dose: 1.56 mg/kg/injection, schedule: Q04DX002 (ip), vehicle: saline): 102 % of control | T/C (endpoint: mean survival time, dose: 3.13 mg/kg/injection, schedule: Q04DX002 (ip), vehicle: saline): 92 % of control | T/C (endpoint: mean survival time, dose: 6.25 mg/kg/injection, schedule: Q04DX002 (ip), vehicle: saline): 98 % of control

CC12C(=O)OC(=O)C1(C)C1OC2C(Br)C1Br (configuration not stated)
T/C (endpoint: mean survival time, dose: 25.0 mg/kg/injection, schedule: Q04DX003 (ip), vehicle: saline with Tween-80): 96 % of control | T/C (endpoint: mean survival time, dose: 50.0 mg/kg/injection, schedule: Q04DX003 (ip), vehicle: saline with Tween-80): 96 % of control | T/C [1]: 93 % of control and 101 % of control

Nc1ncnc2nc(-c3ccc(OCc4ccccc4)cc3)[nH]c12
T/C (endpoint: mean survival time, dose: 100.0 mg/kg/injection, schedule: Q01DX001 (ip), vehicle: Klucel (hydroxypropylcellulose) (HPC)): 97 % of control | T/C (endpoint: mean survival time, dose: 200.0 mg/kg/injection, schedule: Q01DX001 (ip), vehicle: Klucel (hydroxypropylcellulose) (HPC)): 89 % of control | T/C (endpoint: mean survival time, dose: 400.0 mg/kg/injection, schedule: Q01DX001 (ip), vehicle: Klucel (hydroxypropylcellulose) (HPC)): 95 % of control

CCOC1=NC(C)(C)CC(C)O1 (configuration not stated)
T/C (endpoint: mean survival time, dose: 25.0 mg/kg/injection, schedule: Q01DX009 (ip), vehicle: saline): 109 % of control | T/C (endpoint: mean survival time, dose: 50.0 mg/kg/injection, schedule: Q01DX009 (ip), vehicle: saline): 109 % of control | T/C (endpoint: mean survival time, dose: 100.0 mg/kg/injection, schedule: Q01DX009 (ip), vehicle: saline): 103 % of control | T/C (endpoint: mean survival time, dose: 100.0 mg/kg/injection, schedule: Q04DX003 (ip), vehicle: saline): 97 % of control

O=C(CNC(=O)Nc1cccc([N+](=O)[O-])c1)N/N=C/c1ccccc1O
T/C (endpoint: mean survival time, dose: 50.0 mg/kg/injection, schedule: Q01DX009 (ip), vehicle: saline with Tween-80): 93 % of control | T/C [2]: 86 % of control | T/C [3]: 89 % of control

OC1C2CCC(C2)C1C(O)(C(F)(F)Cl)C(F)(F)Cl (configuration not stated)
T/C [2]: 97 % of control | T/C [3]: 91 % of control | T/C [4]: 87 % of control

Nc1ccc(S(=O)(=O)Nc2cnc3c(Cl)cccc3n2)cc1
T/C (endpoint: median survival time, dose: 100.0 mg/kg/injection, schedule: Q01DX005 (ip), vehicle: DMSO): 98 % of control | T/C (endpoint: median survival time, dose: 200.0 mg/kg/injection, schedule: Q01DX005 (ip), vehicle: DMSO): 98 % of control | T/C (endpoint: median survival time, dose: 400.0 mg/kg/injection, schedule: Q01DX005 (ip), vehicle: DMSO): 98 % of control | T/C (endpoint: median survival time, dose: 800.0 mg/kg/injection, schedule: Q01DX005 (ip), vehicle: DMSO): 105 % of control

CCCC(C)CC1CCC(N)CC1 (configuration not stated)
T/C (endpoint: mean survival time, dose: 100.0 mg/kg/injection, schedule: Q04DX002 (ip), vehicle: saline): 96 % of control | T/C (endpoint: mean survival time, dose: 200.0 mg/kg/injection, schedule: Q04DX002 (ip), vehicle: saline): 96 % of control

C/C(=C/Cc1c(O)c(C)c2c(c1O)C(=O)OC2)CCC(=O)NCCc1ccccc1
T/C [5]: 87 % of control | T/C (endpoint: mean survival time, dose: 200.0 mg/kg/injection, schedule: Q04DX002 (ip), vehicle: saline with Tween-80): 87 % of control | T/C (endpoint: mean survival time, dose: 400.0 mg/kg/injection, schedule: Q04DX002 (ip), vehicle: saline with Tween-80): 96 % of control

CC(=O)OC1CCC2(C)C3=CCC4(C)C(C(C)/C=C\C(C)C(C)C)CCC4C34C=CC2(C1)C1C(=O)OC(=O)C14 (configuration not stated)
T/C (endpoint: mean survival time, dose: 50.0 mg/kg/injection, schedule: Q01DX001 (ip), vehicle: saline with Tween-80): 97 % of control | T/C (endpoint: mean survival time, dose: 100.0 mg/kg/injection, schedule: Q01DX001 (ip), vehicle: saline with Tween-80): 91 % of control | T/C [5]: 86 % of control | T/C (endpoint: mean survival time, dose: 200.0 mg/kg/injection, schedule: Q01DX001 (ip), vehicle: saline with Tween-80): 95 % of control

C/C=C1\OC(n2cnc3c(N)ncnc32)C(O)C1O (configuration not stated)
T/C (endpoint: mean survival time, dose: 12.5 mg/kg/injection, schedule: Q01DX005 (ip), vehicle: distilled water + Tween-80): 101 % of control | T/C (endpoint: mean survival time, dose: 25.0 mg/kg/injection, schedule: Q01DX005 (ip), vehicle: distilled water + Tween-80): 109 % of control | T/C (endpoint: mean survival time, dose: 50.0 mg/kg/injection, schedule: Q01DX005 (ip), vehicle: distilled water + Tween-80): 113 % of control | T/C (endpoint: mean survival time, dose: 50.0 mg/kg/injection, schedule: Q01DX009 (ip), vehicle: distilled water + Tween-80): 112 % of control | T/C (endpoint: mean survival time, dose: 100.0 mg/kg/injection, schedule: Q01DX005 (ip), vehicle: distilled water + Tween-80): 119 % of control | T/C (endpoint: mean survival time, dose: 100.0 mg/kg/injection, schedule: Q01DX009 (ip), vehicle: distilled water + Tween-80): 124 % of control | T/C (endpoint: mean survival time, dose: 200.0 mg/kg/injection, schedule: Q01DX009 (ip), vehicle: distilled water + Tween-80): 157 % of control
